Earlier results as cited in patent publication US8343945B2, “Carriers, formulations, methods for formulating unstable active agents for external application and uses thereof” (Foamix Ltd., priority 2007, dated 2013).
Where two headings read alike, the source gives them in different places.

Assays:
[1] = cited from earlier work
[2] = cited from earlier work; remark: listed apart in the source
[3] = powder for IV administration reconstituted with sterile water for injection; cited from earlier work

In the case of Doxycycline hyclate, the “IV solution stable for” value ([1]; 0.1-1 mg/mL in 0.9% sodium chloride or 5% dextrose, 25° C.) is given as 48 h, the “IV solution stable for” value ([1]; 0.1-1 mg/mL in Ringer's, 10% invert sugar, Normosol or Plasma-Lyte in dextrose, room temperature) is given as 12 h and the “IV solution must be infused within” value ([1]; 0.1-1 mg/mL in lactated Ringer's injection or 5% dextrose in lactated Ringer's) is given as at most 6 h. For the same substance, the “IV solution stable for” value ([1]; 2-8° C., protected from direct sunlight and artificial light) was 72 h, the Solubility in alcohol ([2]; alcohol) was “slightly soluble” and the “Solubility in solutions of alkali hydroxides and carbonates” value ([2]; solutions of alkali hydroxides and carbonates) was “soluble”. The Solubility in water ([2]; water) was “soluble” and the pH of solution [3] was 1.8-3.3.
